Measured values reported in US20100227853A1, “INHIBITORS OF CYCLIC AMP PHOSPHODIESTERASES” (Trustees of Boston College, priority 2008, published 2010).
Values belong to the molecule of their own block, whether it stands above or below them.

Tests used:
PDE2A [1] = biological target: T1, PDE2A (Mus musculus, UniProt Q922S4); experiment: cAMP levels in yeast strain expressing PDE2A; assay type: cell-based, murine; settings: 20 μM EHNA as compared to 200 μM
T1 construct: targets used in the assays are full-length proteins (as opposed to simply the catalytic domain); expressed in transfected cells; host or cells: Schizosaccharomyces pombe, PDE gene integrated in place of cgs2 (strains LWP371, LWP364)
T1 sequence (Q922S4 1-939): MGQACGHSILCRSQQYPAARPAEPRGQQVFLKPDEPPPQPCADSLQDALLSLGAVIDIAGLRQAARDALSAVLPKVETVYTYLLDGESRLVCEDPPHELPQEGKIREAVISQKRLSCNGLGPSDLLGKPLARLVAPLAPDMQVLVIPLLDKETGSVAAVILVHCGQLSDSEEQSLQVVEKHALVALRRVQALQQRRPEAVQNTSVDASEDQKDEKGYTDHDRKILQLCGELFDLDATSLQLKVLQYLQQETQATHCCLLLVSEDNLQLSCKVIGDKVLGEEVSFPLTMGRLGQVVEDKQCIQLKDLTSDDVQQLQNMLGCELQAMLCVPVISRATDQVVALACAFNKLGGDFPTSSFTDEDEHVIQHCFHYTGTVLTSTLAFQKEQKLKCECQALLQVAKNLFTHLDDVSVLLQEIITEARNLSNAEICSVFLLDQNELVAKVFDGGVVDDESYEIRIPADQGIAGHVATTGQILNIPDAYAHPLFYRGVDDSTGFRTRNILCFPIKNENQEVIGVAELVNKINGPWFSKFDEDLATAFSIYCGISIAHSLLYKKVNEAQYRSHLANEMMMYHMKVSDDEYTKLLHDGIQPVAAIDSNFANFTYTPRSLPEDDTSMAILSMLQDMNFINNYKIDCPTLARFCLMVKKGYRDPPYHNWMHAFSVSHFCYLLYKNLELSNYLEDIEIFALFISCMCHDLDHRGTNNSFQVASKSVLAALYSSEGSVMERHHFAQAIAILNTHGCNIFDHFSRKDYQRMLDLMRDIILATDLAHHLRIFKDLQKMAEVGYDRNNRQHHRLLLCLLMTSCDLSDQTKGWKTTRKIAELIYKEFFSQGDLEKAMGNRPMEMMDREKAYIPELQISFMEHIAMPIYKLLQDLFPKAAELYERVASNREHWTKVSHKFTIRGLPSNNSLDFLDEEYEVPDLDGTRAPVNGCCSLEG
Protocol: (§1) Values represent the average and SD of two or three independent experiments. […] The strains used are as in FIG. 5A, together with strain CHP1141 (PDE8A). Values represent the average and SD of two or three independent experiments.
(§2) β-galactosidase assays and characterization of 5FOA-sensitivity were carried out as previously described^10. cAMP assays were performed on exponential phase cells grown in EMM complete medium (3% glucose), using the Assay Designs cAMP EIA kit, according to manufacturer's instructions (Assay Designs, Ann arbor, Mich.).
(§3) Thus, PDE inhibition can be indirectly quantitated by measuring the effect of a compound on cAMP levels in target yeast strains.

PDE2A [2] = biological target: T1, PDE2A; experiment: fbp1-lacZ β-galactosidase reporter assay, PDE2A strain; assay type: cell-based, murine; settings: strain LWP367 (PDE2A)
Protocol: as §2
(§4) The effect of known PDE inhibitors on the expression of the fbp1-lacZ fusion in murine PDE-expressing strains was tested. […] For Table 4 β-galactosidase activity was determined from 3 to 4 independent exponential phase cultures. The average±SD represents specific activity per milligram of soluble protein.

Cgs2 = biological target: T2, Cgs2 (Schizosaccharomyces pombe, UniProt P36599); experiment: fbp1-lacZ β-galactosidase reporter assay, Cgs2 strain; assay type: cell-based, S. pombe; settings: strain CHP861 (Cgs2)
T2 construct: expressing either the wild-type S. pombe Cgs2^+ PDE; endogenous in cells; host or cells: Schizosaccharomyces pombe strain CHP861
Protocol: as §2, §4

[3] = system: PDE2A, PDE4A, PDE4B, Cgs2; experiment: Parallel high throughput 5FOA growth screens of bioactive libraries; assay type: cell-based, murine PDEs; yeast Cgs2; settings: 3,120 bioactive compounds, average 20 μM
Protocol: High throughput drug screens were carried out at the Broad Institute's Chemical Biology Program screening facility (Broad Institute, Cambridge, Mass.). Depending upon the strain, cultures were pregrown to exponential phase in EMM complete medium containing from 0.5 to 2.5 mM cAMP to repress fbp1-ura4 transcription. […] Starting cell concentrations ranged from 0.5×10^5 to 4×10^5 cells/ml depending on the screening strain. […] Other positive control dishes contained 5 mM cAMP in the 5FOA medium. Cultures were grown for 48 hours at 30° C., sealed in an airtight container with moist paper towels to prevent evaporation. Optical densities (OD600) of cultures were measured using a microplate reader. Bioinformatic analysis of the results to determine composite Z scores was performed as previously described^30, 31.

PDE7B [4] = biological target: T3, PDE7B (Homo sapiens, UniProt Q9NP56); experiment: in vitro enzyme assay, PDE7B catalytic domain from E. coli, hydrolysis of cAMP to AMP; assay type: biochemical; parameters: The PDE7B catalytic domain was expressed in and purified from E. coli; made in house; host or cells: E. coli; settings: AC200 = [Compound] that doubles PDE activity; read-out: IC50 (or AC200), PDE7B
Protocol: The PDE7B catalytic domain was expressed in and purified from E. coli and tested for activity in an in vitro enzyme assay, measuring the hydrolysis of cAMP to AMP. Four dilutions of the enzyme preparation were tested at various compound concentrations (X axis). The percent of cAMP hydrolyzed is plotted on the Y axis.
Target sequence in this assay (Q9NP56 97-420 limits assumed, species assumed): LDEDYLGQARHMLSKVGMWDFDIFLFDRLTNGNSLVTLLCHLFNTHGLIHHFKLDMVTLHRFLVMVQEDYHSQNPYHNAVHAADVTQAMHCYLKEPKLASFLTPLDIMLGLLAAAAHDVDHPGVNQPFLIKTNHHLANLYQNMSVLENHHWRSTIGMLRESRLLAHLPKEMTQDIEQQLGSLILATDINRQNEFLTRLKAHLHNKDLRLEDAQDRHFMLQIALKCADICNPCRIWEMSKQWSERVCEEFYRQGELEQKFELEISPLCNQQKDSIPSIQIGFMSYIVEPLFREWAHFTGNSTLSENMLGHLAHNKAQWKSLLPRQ

Cgs2-2 = experiment: fbp1-lacZ β-galactosidase reporter assay, Cgs2-2 strain; assay type: cell-based, S. pombe; settings: strain LWP98 (Cgs2-2)
Protocol: as §2, §4

PDE7B [5] = biological target: T3, PDE7B; experiment: 5FOA growth assay in fission yeast strain expressing PDE7B; assay type: cell-based; parameters: targets used in the assays are full-length proteins (as opposed to simply the catalytic domain); expressed in transfected cells; host or cells: Schizosaccharomyces pombe; settings: OD600 0.6; read-out: ED50 for 5FOA growth assays, PDE7B
Protocol: PDE inhibition allows growth in 5FOA medium as measured by optical density after 48 hours incubation at 30° C. Compound BC12 and six structural analogs were tested for growth stimulation.
Cells were pregrown in EMM medium [MP Biomedicals (Solon, Ohio), 3% glucose, filter-sterilized to avoid carmelization, which would introduce variability into the optical density of the medium] containing from 0 mM to 2.5 mM cAMP (or either 0.5 mM or 1.0 mM cGMP). This was to repress expression of the fbp1-ura4 reporter prior to exposure of cells to 5FOA medium. Cells were grown at 30° C. to exponential phase (approximately 10^7 cells/ml). Cells were collected by centrifugation and resuspended in 5FOA medium, and 25 μl were transferred to 384-well microtiter dishes (untreated, with flat clear bottoms) that had been pre-filled with 25 μl 5FOA medium and pre-pinned with 100 nl of compounds (stock solutions were generally 10 mM). Starting cell concentrations ranged from 0.5×10^5 to 4×10^5 cells/ml depending on the screening strain. […] Other positive control dishes contained 5 mM cAMP in the 5FOA medium for PDEs that lack appropriate control compounds. Cultures were grown for 48 hours at 30° C., sealed in an airtight container with moist paper towels to prevent evaporation. Optical densities (OD600) of cultures were measured using a microplate reader. Bioinformatic analysis of the results to determine composite Z scores was performed as previously described (1, 3).
Target sequence in this assay (Q9NP56 whole entry, species assumed, the tested form may be a part): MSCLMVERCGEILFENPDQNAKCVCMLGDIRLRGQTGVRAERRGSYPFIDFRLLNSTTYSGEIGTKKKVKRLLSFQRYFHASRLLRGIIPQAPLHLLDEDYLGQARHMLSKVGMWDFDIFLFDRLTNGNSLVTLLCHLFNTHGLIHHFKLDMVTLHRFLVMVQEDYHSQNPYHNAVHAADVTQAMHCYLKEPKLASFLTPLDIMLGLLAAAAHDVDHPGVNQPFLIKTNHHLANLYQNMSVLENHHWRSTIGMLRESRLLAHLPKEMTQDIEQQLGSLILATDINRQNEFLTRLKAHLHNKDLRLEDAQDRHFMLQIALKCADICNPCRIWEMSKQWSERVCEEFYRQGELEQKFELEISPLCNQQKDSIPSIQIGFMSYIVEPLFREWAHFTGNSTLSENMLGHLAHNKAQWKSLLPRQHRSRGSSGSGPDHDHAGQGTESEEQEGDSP

PDE8A [6] = biological target: T4, PDE8A (Mus musculus, UniProt O88502); experiment: cAMP levels in yeast strain expressing PDE8A; assay type: cell-based, murine; settings: rolipram treatment
T4 construct: targets used in the assays are full-length proteins (as opposed to simply the catalytic domain); expressed in transfected cells; host or cells: Schizosaccharomyces pombe, PDE gene integrated in place of cgs2 (strains CHP1141, DDP13)
T4 sequence (O88502 1-823): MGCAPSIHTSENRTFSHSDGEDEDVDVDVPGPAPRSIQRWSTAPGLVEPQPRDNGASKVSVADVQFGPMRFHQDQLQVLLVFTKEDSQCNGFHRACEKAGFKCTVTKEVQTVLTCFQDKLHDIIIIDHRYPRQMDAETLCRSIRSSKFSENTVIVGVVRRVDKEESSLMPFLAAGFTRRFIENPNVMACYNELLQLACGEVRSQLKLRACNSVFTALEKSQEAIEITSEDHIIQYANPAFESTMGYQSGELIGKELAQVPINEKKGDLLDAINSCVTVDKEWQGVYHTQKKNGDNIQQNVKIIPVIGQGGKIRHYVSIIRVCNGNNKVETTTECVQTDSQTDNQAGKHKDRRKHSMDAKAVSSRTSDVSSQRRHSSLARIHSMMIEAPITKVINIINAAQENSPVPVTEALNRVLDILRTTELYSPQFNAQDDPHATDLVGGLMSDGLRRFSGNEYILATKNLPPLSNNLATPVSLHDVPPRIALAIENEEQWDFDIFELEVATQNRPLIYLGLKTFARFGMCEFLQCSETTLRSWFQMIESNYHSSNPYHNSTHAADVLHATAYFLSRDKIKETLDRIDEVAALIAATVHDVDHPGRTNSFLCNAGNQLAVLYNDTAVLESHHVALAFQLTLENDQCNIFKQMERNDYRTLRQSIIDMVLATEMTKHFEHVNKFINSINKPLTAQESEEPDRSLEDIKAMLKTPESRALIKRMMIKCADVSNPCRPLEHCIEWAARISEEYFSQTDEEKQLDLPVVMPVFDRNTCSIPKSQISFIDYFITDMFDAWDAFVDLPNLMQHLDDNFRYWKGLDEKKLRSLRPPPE
Protocol: as §1, §2, §3

PDE8A [7] = biological target: T4, PDE8A; experiment: fbp1-lacZ β-galactosidase reporter assay, PDE8A strain; assay type: cell-based, murine; settings: strain DDP13 (PDE8A)
Protocol: as §2, §4

PDE7A = PDE7A (Homo sapiens, UniProt Q13946); experiment: 5FOA growth assay in fission yeast strain expressing PDE7A; assay type: cell-based; parameters: targets used in the assays are full-length proteins (as opposed to simply the catalytic domain); expressed in transfected cells; host or cells: Schizosaccharomyces pombe, PDE gene integrated in place of cgs2; settings: OD600 0.6; read-out: ED50 for 5FOA growth assays, PDE7A
In short: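 Growth stimulation, reported as composite Z scores, was read as OD600 after 48 h at 30 °C in 5FOA medium. Before this, reporter (fbp1-ura4) yeast were grown at 30 °C in EMM with 0–2.5 mM cAMP or 0.5/1.0 mM cGMP to repress the reporter, then exposed to 100 nl pinned compound (stocks generally 10 mM).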

U937 cells = experiment: TNF alpha release by LPS-treated U937 cells; assay type: cell-based

T2 sequence (P36599 whole entry): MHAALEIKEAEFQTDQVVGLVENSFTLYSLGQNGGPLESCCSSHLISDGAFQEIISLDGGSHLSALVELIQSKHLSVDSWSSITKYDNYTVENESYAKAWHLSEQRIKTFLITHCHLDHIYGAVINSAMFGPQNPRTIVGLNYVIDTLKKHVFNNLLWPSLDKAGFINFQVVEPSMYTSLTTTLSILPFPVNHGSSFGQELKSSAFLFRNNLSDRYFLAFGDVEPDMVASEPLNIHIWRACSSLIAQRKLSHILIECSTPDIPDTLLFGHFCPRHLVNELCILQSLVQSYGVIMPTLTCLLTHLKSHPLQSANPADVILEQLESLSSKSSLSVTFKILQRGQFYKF
Chain of PDE7A (Q13946 whole entry, the tested form may be a part): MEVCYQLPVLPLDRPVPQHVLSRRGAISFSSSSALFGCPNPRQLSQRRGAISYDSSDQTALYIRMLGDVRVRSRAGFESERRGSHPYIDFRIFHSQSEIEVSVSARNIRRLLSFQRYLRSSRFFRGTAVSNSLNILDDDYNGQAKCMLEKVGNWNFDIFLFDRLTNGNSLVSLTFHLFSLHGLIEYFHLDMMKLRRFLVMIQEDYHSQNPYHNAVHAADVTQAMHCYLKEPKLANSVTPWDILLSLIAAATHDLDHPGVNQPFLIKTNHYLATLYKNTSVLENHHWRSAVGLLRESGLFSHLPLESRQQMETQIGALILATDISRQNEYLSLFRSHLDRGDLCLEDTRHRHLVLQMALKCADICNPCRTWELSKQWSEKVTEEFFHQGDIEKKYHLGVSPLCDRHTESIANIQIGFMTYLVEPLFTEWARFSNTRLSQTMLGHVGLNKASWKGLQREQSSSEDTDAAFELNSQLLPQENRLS

- inhibition of PDE2A judged by cAMP levels (PDE2A [1]): partial inhibition
- β-galactosidase activity (PDE2A [2]; 5 μM EHNA): 473 ± 19
- β-galactosidase activity (PDE2A [2]; 20 μM EHNA): 197 ± 51
- β-galactosidase activity (PDE2A [2]; 200 μM EHNA): 45 ± 3
SMILES: CCCCCC[C@@H]([C@@H](C)O)n1cnc2c(N)ncnc21 (racemic) [EHNA]

SMILES: COc1ccc(C2CNC(=O)C2)cc1OC1CCCC1 (stereo not drawn) [Rolipram, reference compound]
- β-galactosidase activity (Cgs2; 50 μM Rolipram, specific activity per milligram of soluble protein, average ± SD): 1807 ± 446
- β-galactosidase activity (Cgs2; 100 μM Rolipram): 1784 ± 429
- hit in high throughput screens (promotes 5FOA^R growth), in words [3]: only affected the PDE4A- and PDE4B-expressing strains
- IC50 (PDE7B [4]): > 2 µM
- β-galactosidase activity (Cgs2-2; 50 μM Rolipram): 19 ± 9
- β-galactosidase activity (Cgs2-2; 100 μM Rolipram): 20 ± 11
- EC50 (PDE7B [5]): > 200 µM
- cAMP levels in PDE8A strain (PDE8A [6]): completely insensitive
- β-galactosidase activity (PDE8A [7]; 50 μM Rolipram): 253 ± 46
- β-galactosidase activity (PDE8A [7]; 100 μM Rolipram): 237 ± 67
- EC50 (PDE7A): > 200 µM
- TNF (U937 cells; 3 HOURS): 3497 pg/mL
- TNF alpha (EtoH = 100.0) (U937 cells; 3 HOURS): 86.2
- TNF, % EtOH cntrl (U937 cells; 3 HOURS): 72.4%
- TNF (U937 cells; 20 HOURS): 9362 pg/mL
- TNF alpha (EtoH = 100.0) (U937 cells; 20 HOURS): 86.3
- TNF, % EtOH cntrl (U937 cells; 20 HOURS): 68.4%
